Results on ten compounds are retold here after patent publication US20250049967A1, “PET TRACERS FOR V[…] GAMMA1 RECEPTORS” (Hoffmann-La Roche Inc., priority 2022, published 2025).

One may read the Ki as the equilibrium dissociation constant of an inhibitor or competing ligand from its target. High values mean lower affinity, low ones higher affinity.

Series [1] addresses h-GABA-A α2β2γ1 receptor (Homo sapiens (Human), UniProt P47869+Q8N1C3). The series is described as follows: Xenopus oocyte two-electrode voltage clamp electrophysiology, modulation of GABA EC20 current. Format: cell-based. The settings on record: for Efficacy (GABA)%: % modulation of GABA EC20 = 100*(Fold increase−1), compound at 30-fold Ki α2β2γ1; for Potentiation of GABA-induced current in α2β2γ1 expressing oocytes: reference PAMs, GABA EC20. On the procedure:
Xenopus laevis oocytes at maturation stages V-VI were used for the expression of cloned mRNA encoding GABAA receptor subunits. Oocytes ready for RNA micro-injection were bought from Ecocyte, Castrop-Rauxel, Germany and stored in modified Barth's medium (composition in mM: NaCl 88, KCl 1, NaHCO3 2.4, HEPES 10, MgSO4 0.82, CaNO3 0.33, CaCl2 0.33, pH=7.5) at 20° C. until the experiment.
Oocytes were plated in 96-well plates for microinjection using the Roboinject automated instrument (MultiChannelSystems, Reutlingen, Germany). Approximately 50 nL of an aqueous solution containing the RNA transcripts for the subunits of the desired GABAA receptor subtype was injected into each oocyte. […] Oocytes were kept in modified Barth's medium (composition in mM: NaCl 88, KCl 1, NaHCO3 […], HEPES 10, MgSO4 0.82, CaNO3 0.33, CaCl2 0.33, pH=7.5) at 20° C. until the experiment.
Electrophysiological experiments were performed using the Roboocyte instrument (MultiChannelSystems, Reutlingen, Germany) on days 3 to 5 after the micro-injection of mRNA. During the experiment the oocytes were constantly superfused by a solution containing (in mM) NaCl 90, KCl 1, HEPES 5, MgCl2 1, CaCl2 1 (pH 7.4). Oocytes were impaled by two glass microelectrodes (resistance: 0.5-0.8 MΩ) which were filled with a solution containing KCl 1M+K-acetate 1.5 M and voltage-clamped to −80 mV. The recordings were performed at room temperature using the Roboocyte two-electrode voltage clamp system (Multichannelsystem). After an initial equilibration period of 1.5 min GABA was added for 1.5 min at a concentration evoking approximately 20% of a maximal current response (EC20). After another rest interval of 2.5 min GABA was again added evoking a response of similar amplitude and shape. […] Current traces were recorded at a digitization rate of 10 Hz during and shortly before and after the GABA application.
Each compound and concentration was tested on at least 3 oocytes. Different oocytes were used for different compound concentrations.
For the analysis, the digitized current traces of the first and second GABA response were superimposed and, if necessary, rescaled to equal maximal amplitudes. The ratio between the two responses during the time interval of test compound application was calculated point by point. The extremum of the resulting “ratio trace” was taken as the efficacy (“Fold increase”) of the compound expressed as “% modulation of GABA EC20” (100*(Fold increase−1)).

In series [2] the target is human GABAA α1β3γ2 receptor (Homo sapiens (Human), UniProt P14867+P18507). The series is described as follows: Binding assay, competition for [^3H]Flumazenil, HEK293F cells. To be noted: for γ2/γ1 Selectivity Ratio: Ki α1β3γ2 (nM)/Ki α2β2γ1 (nM). The method, then: The affinity of compounds at GABAA γ2 subunit-containing receptors was measured by competition for [^3H]Flumazenil (81.1 Ci/mmol; Roche) binding to HEK293F cells expressing human (transiently transfected) receptors of composition α1β3γ2.
Harvested pellets from HEK293F cells expressing the different GABAA γ2 receptor subtypes were resuspended in Mannitol Buffer pH 7.2-7.4 and processed as described above for the cells expressing the GABAA γ1 subunit-containing receptors.
Assays were incubated to equilibrium for 1 hour at 4° C. and harvested onto GF/C uni-filters (Packard) by filtration using a Packard harvester and washing with ice-cold wash buffer (50 mM Tris; pH 7.5). After anhydrousing, filter-retained radioactivity was detected by liquid scintillation counting. Ki values were calculated using Excel-Fit (Microsoft) and are the means of two determinations.

The target of series [3] is GABAA γ1 receptor (Mus musculus (Mouse), UniProt Q9R0Y8). Put plainly: In vitro autoradiography, coronal brain sections of GABAA γ1 knockout and wild-type mice. The class given is binding. To be noted: 0.3 nM radioligand, 30 minutes room temperature, knockout vs wild-type mouse brain sections. The method, then: Autoradiographical analyses of [^3H]-(I) and [^3H]-(II) were performed with coronal brain sections from GABAA γ1 receptor knockout mice (C57BL/6NTac-Gabrg1) and wild-type controls. Tissue sections (10 μm) were cut in a cryostat, thaw-mounted on microscope glass slides and incubated in incubation buffer (50 mM Tris-HCl, pH 7.4) containing 0.3 nM radioligand (molar activity 83 Ci/mmol and 81 Ci/mmol for [^3H]-(II) and [^3H]-(I), respectively) at room temperature for 30 minutes. After incubation, all sections were rinsed three times in ice-cold wash buffer (50 mM Tris-HCl, pH 7.4) for 10 minutes and dipped three times in distilled water at 4° C. Slide-mounted brain sections were dried in a ventilated fridge for at least 2 hours and exposed to a Fuji Imaging Plate for 5 days. The imaging plate was scanned at a resolution of 25 μm in a Fujifilm high-resolution plate scanner. Visualization and quantification of autoradiographies was performed by the MCID™ image analysis program.

In series [4] the test system is GABAA γ1 receptor. The series is described as follows: In vivo PET scans in baboons, regional time-activity curves. More on the design: species or system papio anubis olive brown baboons. The settings on record: baboon, intravenous bolus approx. 700 MBq, 90 min scan. On the procedure: PET imaging experiments were performed in male papio anubis olive brown baboons to examine the characteristics of [^11C]-(I) and [^11C]-(II) in vivo. The final radiotracer product was radiochemically pure (>95%) up to 40 min post its end of synthesis with an average final calculated specific activity of >555 GBq/μmol. The PET camera used was the Siemens HRRT with an in-plane field-of-view (FOV) of 30 cm and an axial FOV of 24 cm. Each dynamic PET scan started with an intravenous bolus injection of the radiotracer (approx. 700 MBq) and continued for 90 min in a 3D list mode. A set of volumes of interest (VOIs) for 16 brain regions were defined on MRIs of individual animals referring to a standard VOI template. VOIs were transferred to PET space using the coregistration parameters to generate time-activity curves (TACs) of brain regions.

The target in series [5] is human GABAA α1β2γ1 receptor (Homo sapiens (Human), UniProt P14867+Q8N1C3). The series is described as follows: Binding assay, competition for [^3H]RO7239181, membranes from HEK293F cells. On the procedure: (§1) Harvested pellets from HEK293F cells expressing the different GABAA receptor subtypes were resuspended in Mannitol Buffer pH 7.2-7.4 (Mannitol 0.29M, Triethylamine 10 mM, Acetic acid 10 mM, EDTA 1 mM plus protease inhibitors (20 tablets Complete, Roche Diagnostics Cat. No. 05 056 489 001 per liter)), washed two times and then resuspended at 1:10 to 1:15 dilution in the same buffer. Cell disruption was performed by stirring the suspension in a Parr vessel #4637 at 435 psi for 15 minutes, and then the suspensions were centrifuged at 1000×g for 15 minutes at 4° C. (Beckman Avanti J-HC; rotor JS-4.2). The supernatant (S1) was transferred in a 2 l Schott flask and the pellet (P1) was resuspended with Mannitol Buffer up to 175 ml. The resuspended pellet was transferred into a 250 ml Corning centrifugal beaker and centrifuged at 1500×g for 10 minutes at 4° C. (Beckman Avanti J-HC; rotor JS-4.2). The supernatant (S1) was then transferred in the 2 l Schott flask and the pellet was discarded. […] The P2 and P3 protein concentration was determined with the BIORAD Standard assay method with bovine serum albumin as standard and measured on the NANO-Drop 1000. […]
(§2) Membrane homogenates were resuspended and polytronised (Polytron PT1200E Kinematica AG) in Potassium Phosphate 10 mM, KCl 100 mM binding buffer at pH 7.4 to a final assay concentration determined with a previous experiment. […]

For series [6], the target named is human GABAA α2β2γ1 receptor (Homo sapiens (Human), UniProt P47869+Q8N1C3). The description is as above. On the procedure: as §1, §2

GABAA γ1 receptor (Mus musculus (Mouse), UniProt Q9R0Y8), sequence (Q9R0Y8 36-465 limits assumed): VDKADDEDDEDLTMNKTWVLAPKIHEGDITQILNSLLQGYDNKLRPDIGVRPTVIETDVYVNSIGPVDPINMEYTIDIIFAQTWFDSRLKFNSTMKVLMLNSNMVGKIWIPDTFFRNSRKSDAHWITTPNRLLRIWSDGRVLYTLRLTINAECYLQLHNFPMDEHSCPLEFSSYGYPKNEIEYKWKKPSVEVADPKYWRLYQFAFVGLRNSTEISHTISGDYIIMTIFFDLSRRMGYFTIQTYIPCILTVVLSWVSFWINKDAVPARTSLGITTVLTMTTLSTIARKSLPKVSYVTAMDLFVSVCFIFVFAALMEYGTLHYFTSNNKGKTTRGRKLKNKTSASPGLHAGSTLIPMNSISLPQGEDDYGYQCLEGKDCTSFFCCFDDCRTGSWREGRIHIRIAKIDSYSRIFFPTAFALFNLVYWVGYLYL

`CN1C(=O)CN=C(c2cc(O)ccc2F)c2c1ccc(Cl)c2Cl` [Example 1, 6,7-dichloro-5-(2-fluoro-5-hydroxy-phenyl)-1-methyl-3H-1,4-benzodiazepin-2-one]: the “Efficacy (GABA)%” value in series [1] was determined as 90%. Besides, the “γ2/γ1 Selectivity Ratio” value in series [2] is 12.7.

Regarding `[3H]C([3H])([3H])N1C(=O)CN=C(c2cc(O)ccc2F)c2c1ccc(Cl)c2Cl` [[^3H]-(I), 6,7-Dichloro-5-(2-fluoro-5-hydroxy-phenyl)-1-([^3H3]methyl)-3H-1,4-benzodiazepin-2-one], the “Specific binding in the amygdala” value in series [3] was 65%. As for `Cc1ccc2c(c1Cl)C(c1cc(O)ccc1F)=NCC(=O)N2C` [Example 2, 6-chloro-5-(2-fluoro-5-hydroxy-phenyl)-1,7-dimethyl-3H-1,4-benzodiazepin-2-one], the “Efficacy (GABA)%” value in series [1] amounted to 70%. Further, in series [2], the “γ2/γ1 Selectivity Ratio” value worked out at 39.0. Turning to `Cc1nnc2n1-c1ccc(Cl)cc1C(c1ccccc1Cl)=NC2` [Triazolam], the “Potentiation of GABA-induced current in α2β2γ1 expressing oocytes” value in series [1] is listed as around 60%. Consider `Cc1ccc2c(c1Cl)C(c1cc(O)ccc1F)=NCC(=O)N2[11CH3]` [[^11C]-(II), [^11C]6-Chloro-5-(2-fluoro-5-hydroxy-phenyl)-1,7-dimethyl-3H-1,4-benzodiazepin-2-one], for which the “Time of brain uptake peaks” value in series [4] (comparison of tracers) was “earlier peaks than [^11C]-(I)”. Consider `[3H]C([3H])([3H])N1C(=O)CN=C(c2cc(O)ccc2F)c2c1ccc(C)c2Cl` [[^3H]-(II), 6-Chloro-5-(2-fluoro-5-hydroxy-phenyl)-7-methyl-1-([^3H3]methyl)-3H-1,4-benzodiazepin-2-one], for which, in series [3], the “Specific binding in the amygdala” value stood at 97%. For the compound `[11CH3]N1C(=O)CN=C(c2cc(O)ccc2F)c2c1ccc(Cl)c2Cl` [[^11C]-(I), [^11C]6,7-Dichloro-5-(2-fluoro-5-hydroxy-phenyl)-1-methyl-3H-1,4-benzodiazepin-2-one], the Brain clearance result in series [4] is listed as “Slower clearance”. Take `CN1C(=O)CN=C(c2cc(O)ccc2Cl)c2cc(Cl)ccc21` [RE-A, reference compound]: the values for the Ki in series [5], in series [6] and in series [2] were 6.84 nM, 2.79 nM and 1.5 nM, respectively. Further, in series [2], the “γ2/γ1 Selectivity Ratio” value was 0.54. `CN1C(=O)CN=C(c2ccccc2F)c2cc([N+](=O)[O-])ccc21` [Flunitrazepam]: in series [1], the “Potentiation of GABA-induced current in α2β2γ1 expressing oocytes” value was around 60%. Same read-out and setting: then `Cc1ncc2n1-c1ccc(Cl)cc1C(c1ccccc1F)=NC2` [Midazolam], with around 60%.
